Source: patent publication US5858972A, “Antithrombotic agents and methods of use” (La Jolla Cancer Research Foundation, priority 1996, dated 1999)
Converted amounts (≈) assume the structure as drawn. Where a SMILES comes first, the peptide text is derived from it. Bridges are numbered along the chain shown (N, C = ends). [ ]: non-standard residue; d: D form. Nle = CCCC[C@H](N)C(=O)O

What was measured:
[1] = target: T1, GP-IIb/IIIa (Homo sapiens, UniProt P05106+P08514); experiment: Platelet aggregation in citrated (low Ca2+) versus heparinized (physiological Ca2+) plasma: apparent affinity for GP-IIb/IIIa; format: cell-based; conditions: 10 μM ADP; for difference in apparent binding affinity for GP-IIb/IIIa at low (citrate) versus higher (heparin) calcium concentration, in words: citrated vs heparinized plasma; for increase (separation) in apparent affinity for GP-IIb/IIIa in low calcium concentration as compared to physiological calcium concentration: citrated plasma (about 0.18 mM Ca2+) vs heparinized plasma (2.3 mM Ca2+)
T1 construct: Platelet-rich plasma (PRP) was prepared by centrifuging heparinized; endogenous in cells; host or cells: human platelets in platelet-rich plasma (citrated or heparinized) from normal volunteers
Text: (§1) This example provides platelet aggregation studies for various peptides of the present invention. The studies compare the effect of the peptide on aggregation in both citrated and heparinized plasma. Because citrate is a chelating agent for calcium ions, the citrated plasma has a low calcium concentration as is characteristic of a clot site. In contrast, heparinized plasma has a calcium concentration similar to that of physiological conditions elsewhere in the blood stream.
(§2) Whole blood was drawn by a licensed phlebotomist from the antecubital vein using a 21 gauge butterfly infusion set and syringe from normal human volunteers. Platelet-rich plasma (PRP) was prepared by centrifuging heparinized (20 Units lithium porcine mucosa heparin/ml whole blood) or citrated (0.38% sodium citrate) whole blood for 12 min. at 200 relative centrifugal force (RCF). Platelet-poor plasma (PPP) is prepared by centrifuging PRP at 750 RCF for 12 min. and collecting the supernatant. Blood cell counts were performed using a Serano Baker automated cell counter. PRP platelet counts were adjusted to 200,000/μl by dilution with PPP. Final plasma free Ca+^2 concentrations were approximately 0.18 mM for citrated plasma and 2.3 mM for heparinized plasma. Platelet aggregation was determined spectrophotometrically utilizing a four channel aggregometer (Chrono-Log 570) by measuring the increase of light transmission through a stirred suspension of PRP maintained at 37° C. Dilutions of the peptides were added to the suspensions and aggregation induced with 10 μM adenosine diphosphate (ADP). Values were expressed as percentage of aggregation in the absence of peptides. This represents the percentage of light transmission standardized to PRP and PPP samples yielding 0% and 100% light transmission respectively.
(§3) Peptide anti-aggregation potencies were determined from dose-responsive curves for the inhibition of the maximum aggregation responses stimulated by high doses of ADP (10 μm). The 50% inhibitory concentration of each peptide (IC50) was determined by regression analysis of these curves.

[2] = tested on: platelets (platelet-rich plasma); experiment: ADP-induced platelet aggregation in citrated platelet-rich plasma (low Ca2+); format: cell-based; conditions: human PRP, 10 μM ADP; for IC50, platelet aggregation in citrated plasma: citrated plasma (about 0.18 mM free Ca2+), 37° C.
Text: as §1, §2, §3

T1 sequence (P08514 32-887 limits assumed): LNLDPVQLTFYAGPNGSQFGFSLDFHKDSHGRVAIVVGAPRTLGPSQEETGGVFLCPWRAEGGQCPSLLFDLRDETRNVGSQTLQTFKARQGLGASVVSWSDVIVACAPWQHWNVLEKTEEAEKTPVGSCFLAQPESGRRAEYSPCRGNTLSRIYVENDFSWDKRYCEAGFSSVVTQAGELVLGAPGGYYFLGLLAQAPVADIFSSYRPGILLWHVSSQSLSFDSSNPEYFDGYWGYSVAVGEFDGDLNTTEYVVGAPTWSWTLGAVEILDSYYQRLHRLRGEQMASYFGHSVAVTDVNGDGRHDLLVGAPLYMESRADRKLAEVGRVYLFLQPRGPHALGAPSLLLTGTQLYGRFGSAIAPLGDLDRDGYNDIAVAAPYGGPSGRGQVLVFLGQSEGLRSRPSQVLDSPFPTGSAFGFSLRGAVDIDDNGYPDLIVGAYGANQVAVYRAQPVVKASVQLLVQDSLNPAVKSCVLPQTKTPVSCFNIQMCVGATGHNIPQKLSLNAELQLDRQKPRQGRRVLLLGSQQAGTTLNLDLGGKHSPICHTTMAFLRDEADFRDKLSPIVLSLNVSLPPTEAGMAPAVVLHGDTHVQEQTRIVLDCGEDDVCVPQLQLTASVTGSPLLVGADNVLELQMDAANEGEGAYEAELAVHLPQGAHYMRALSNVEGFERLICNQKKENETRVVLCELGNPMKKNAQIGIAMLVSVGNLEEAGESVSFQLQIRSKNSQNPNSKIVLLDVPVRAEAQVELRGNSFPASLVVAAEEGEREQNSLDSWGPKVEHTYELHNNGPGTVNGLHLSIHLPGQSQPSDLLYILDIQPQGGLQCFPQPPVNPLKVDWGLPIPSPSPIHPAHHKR
T1 sequence (P08514 891-1039 partner limits assumed): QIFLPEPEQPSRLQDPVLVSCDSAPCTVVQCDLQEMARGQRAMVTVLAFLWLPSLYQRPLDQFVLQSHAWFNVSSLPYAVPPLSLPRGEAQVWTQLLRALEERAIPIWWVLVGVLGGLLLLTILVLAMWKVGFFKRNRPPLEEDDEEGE
T1 sequence (P05106 27-788): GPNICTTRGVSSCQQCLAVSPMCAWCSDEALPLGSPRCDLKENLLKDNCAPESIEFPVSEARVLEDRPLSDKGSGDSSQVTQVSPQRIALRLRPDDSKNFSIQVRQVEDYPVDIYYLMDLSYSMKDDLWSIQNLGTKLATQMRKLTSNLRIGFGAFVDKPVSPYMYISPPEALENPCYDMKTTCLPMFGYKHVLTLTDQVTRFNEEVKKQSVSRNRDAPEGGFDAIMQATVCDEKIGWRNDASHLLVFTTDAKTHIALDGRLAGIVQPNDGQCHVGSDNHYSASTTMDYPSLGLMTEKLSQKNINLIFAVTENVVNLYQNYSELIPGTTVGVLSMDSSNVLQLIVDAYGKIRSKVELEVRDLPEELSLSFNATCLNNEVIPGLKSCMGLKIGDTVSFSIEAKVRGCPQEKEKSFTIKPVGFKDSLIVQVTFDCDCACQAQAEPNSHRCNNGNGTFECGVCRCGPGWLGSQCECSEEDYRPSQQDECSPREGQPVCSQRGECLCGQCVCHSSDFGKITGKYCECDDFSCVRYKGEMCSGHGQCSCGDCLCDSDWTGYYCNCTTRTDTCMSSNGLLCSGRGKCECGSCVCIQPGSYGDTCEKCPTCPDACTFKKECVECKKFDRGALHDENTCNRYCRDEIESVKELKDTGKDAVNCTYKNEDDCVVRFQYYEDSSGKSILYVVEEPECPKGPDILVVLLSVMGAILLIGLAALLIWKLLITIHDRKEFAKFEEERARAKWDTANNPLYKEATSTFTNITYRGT

Row | Structure (SMILES) | IC50, platelet aggregation in citrated plasma [2] [µg/mL] | increase (separation) in apparent affinity for GP-IIb/IIIa in low calcium concentration as compared to physiological calcium concentration [1] [fold] | difference in apparent binding affinity for GP-IIb/IIIa at low (citrate) versus higher (heparin) calcium concentration, in words [1] | inhibitory activity on platelet aggregation stimulated with ADP, in words [2]
1 | COc1ccc(C[C@@H]2NC(=O)[C@H](CC(=O)O)NC(=O)CNC(=O)[C@H](C)NC(=O)[C@@H]3CCCN3C(=O)[C@H](CC(N)=O)NC(=O)[C@@H](NC(C)=O)CSSC[C@@H](C(N)=O)NC(=O)[C@H](CCCNC(=N)N)NC2=O)cc1 [SEQ ID NO. 2, Ac-CNPAGD(Y-OMe)RC-NH2] (Ac-CNPAGDY(Me)RC-NH2; disulfide 1-9) | 309 (≈ 294 µM) | – | a separation between the apparent binding affinity | –
2 | CCCC[C@@H]1NC(=O)[C@@H]2CCCN2C(=O)[C@H](CC(N)=O)NC(=O)[C@@H](NC(C)=O)CSSC[C@@H](C(N)=O)NC(=O)[C@H](CCCNC(=N)N)NC(=O)[C@H](Cc2ccc(OC)cc2)NC(=O)[C@H](CC(=O)O)NC(=O)CNC1=O [SEQ ID NO. 3, Ac-CNP(Nle)GD(Y-OMe)RC-NH2] (Ac-CNP[Nle]GDY(Me)RC-NH2; disulfide 1-9) | 43 (≈ 39.3 µM) | 20 | – | –
3 | COc1ccc(C[C@@H]2NC(=O)[C@H](CC(=O)O)NC(=O)CNC(=O)[C@H](CCCNC(=N)N)NC(=O)[C@@H]3CCCN3C(=O)[C@H](CC(N)=O)NC(=O)[C@@H](NC(C)=O)CSSC[C@@H](C(N)=O)NC(=O)[C@H](CCCNC(=N)N)NC2=O)cc1 [SEQ ID NO. 8, Ac-CNPRGD(Y-OMe)RC-NH2] | 0.2 (≈ 0.176 µM) | 12 | – | –

Now from value to molecule, other results behind:

Row | IC50, platelet aggregation in citrated plasma [2] [µg/mL] | increase (separation) in apparent affinity for GP-IIb/IIIa in low calcium concentration as compared to physiological calcium concentration [1] [fold] | Structure (SMILES) | difference in apparent binding affinity for GP-IIb/IIIa at low (citrate) versus higher (heparin) calcium concentration, in words [1] | inhibitory activity on platelet aggregation stimulated with ADP, in words [2]
4 | > 370 | – | COc1ccc(C[C@H](NC(=O)[C@H](CC(=O)O)NC(=O)CNC(=O)[C@H](C)NC(=O)[C@@H]2CCCN2C(=O)[C@H](CC(N)=O)NC(=O)[C@H](CS)NC(C)=O)C(=O)N[C@@H](CCCNC(=N)N)C(=O)N[C@@H](CS)C(N)=O)cc1 [SEQ ID NO. 5, Ac-CNPAGD(Y-OMe)RC-NH2] (Ac-CNPAGDY(Me)RC-NH2) | no difference in their apparent affinity for GP-IIb/IIIa at low versus higher calcium concentration | little to no activity
5 | > 370 | – | CCCC[C@H](NC(=O)[C@@H]1CCCN1C(=O)[C@H](CC(N)=O)NC(=O)[C@H](CS)NC(C)=O)C(=O)NCC(=O)N[C@@H](CC(=O)O)C(=O)N[C@@H](Cc1ccc(OC)cc1)C(=O)N[C@@H](CCCNC(=N)N)C(=O)N[C@@H](CS)C(N)=O [SEQ ID NO. 6, Ac-CNP(Nle)GD(Y-OMe)RC-NH2] (Ac-CNP[Nle]GDY(Me)RC-NH2) | no difference in their apparent affinity for GP-IIb/IIIa at low versus higher calcium concentration | little to no activity
